Results as given in PMC10354432, “Preparation of caffeic acid grafted chitosan self-assembled micelles to enhance oral bioavailability and antibacterial activity of quercetin” (Frontiers in Veterinary Science, 2023).

How the values were obtained:
[1] = test system: Escherichia coli CMCC44102; assay: MIC and MBC, micro broth twofold dilution; format: cell-based
Protocol: (§1) We selected Escherichia coli CMCC44102 and Escherichia coli of chicken origin as experimental strains to determine their Minimum Inhibitory Concentration (MIC) and Minimum Bactericidal Concentration (MBC). The culture medium was configured and autoclaved, and the bacteria were cultured. The bacterial broth of the logarithmic growth period was diluted by micro broth twofold dilution method, 100 μL broth was added to each well of a sterile 96-well plate, and then 100 μL of prepared drug solution was added to the first well respectively, mixed well, and then diluted in multiples until the last well was mixed and 100 μL of the mixture was discarded. Each well was added with 100 μL of the prepared bacterial diluent, and a positive control (with bacteria and no drug) and a negative control (without bacteria and no drug) were set up. […] The tritriazolium chloride (TTC) method was used to determine the MIC results. 5 g/L TTC was added to each well of the 96-well plate after incubation for 1 h at 37°C, and the MIC was determined as the lowest antibacterial drug concentration in the wells with bacterial growth and the wells without bacterial growth. 100 μL of the liquid from each well clarified in the above test group was spread on solid, and the lowest drug concentration for no colony growth was its MBC. Agar plate experiments were also performed using the Oxford cup method, using CA-g-CS/QR with QR aqueous solution and maintaining the same concentration, sterile water group and CA-g-CS group were set, and three parallel experiments were performed to further confirm the antibacterial activity of the compounds.

[2] = test system: Escherichia coli of chicken origin; assay: MIC and MBC, micro broth twofold dilution; format: cell-based
Protocol: as §1

[3] = In vivo pharmacokinetics in white-finned broiler chickens; details: Chinese white-finned broiler, po, i.g., 36 mg/kg
From the text: The experimental procedures were reviewed and approved by the Institutional Animal Care and Use Committee of Hebei Agricultural University and carried out in accordance with the Guidelines for the Care and Use of Laboratory Animals of China. In this study, 12 healthy 30 days old Chinese white-finned broilers were used for the trial. All broilers were reared from 1 day of age and were provided with adequate basal diets and water, which were formulated to meet or exceed the nutritional requirements of broilers. Room temperature was maintained at 35°C for the first 3 days, then decreased to 28–30°C for the next 2 weeks and 25°C for the rest of the period. Broilers were randomly divided into two treatment groups (six broilers per treatment, n = 6) before the experiment, fasted for 18 h, and watered ad libitum. The experiment was administered by instillation, and blood was collected under the wings during the experiment according to the time designed for the experiment, and the plasma was centrifuged and separated for storage in a refrigerator at −20°C for processing and analysis. At the end of the experiment, broilers were euthanized.
The Waters Acquity UPLC H-Class system (Waters, Milford, MA, USA) includes a four-stage solvent manager, an autosampler set at 4°C and a Waters Acquity UPLC Shield RP18 column (100 × 2.1 mm, 1.7 μm, Waters. Milford, MA, USA). The mobile phase was methanol-0.1% phosphate (72:28, v/v). Detection was performed by a photodiode array detector at 373 nm at a flow rate of 0.2 mL/min. This assay was developed for the determination of QR in blood plasma.
A 200μL aliquot of plasma was sequentially added 20μL of 40μg/mL kaempferol internal standard, 100 μL of 25% HCL and 2 mL of ethyl acetate vortexed for 2 min equally. This mixture was centrifuged at 5000 rpm for 10 min, and the supernatant was transferred into a centrifuge tube and then concentrated to dryness under nitrogen. The analytes were dissolved in 200 μL of methanol/0.1% phosphoric acid water (4:1, v/v).
White-finned broilers were randomly divided into two experimental groups, one for the QR solution group and the other for the CA-g-CS/QR group, with six replicates in each group. The CA-g-CS/QR solution and the original QR solution were prepared and administered to the chickens at a dose of 36 mg/kg, and blood was collected under the wings at 15, 30, 60, 120, 240, 360, 480, 720, 1440, and 2160 min after the administration, placed in sodium heparin anticoagulation tubes and centrifuged to separate the plasma.
Pharmacokinetic parameters were estimated by blood concentration-time curves from Phoenix WinNonlin software. The […] was used to calculate the terminal elimination half-life (t1/2, λz), the area under the blood concentration-time curve (AUC0 − t), terminal feed time (AUC0−∞), total clearance (CL), and volume of distribution (Vd, λz). The peak blood concentration (Cmax) and time to peak (Tmax) were read directly from the observed individual blood concentration-time data. For instillation administration, the relative bioavailability (F) was calculated using the AUC0−∞ of CA-g-CS/QR versus QR.

[4] = Stability of QR in white broiler plasma; format: in vitro ADME
Protocol: Precision and accuracy were assessed by running the standards (n = 6) for 1 day and three consecutive days for three levels of concentration (10.0, 100.0, and 500.0 ng/ml) at low, medium, and high. The stability of QR in the samples was also investigated by sampling and analyzing the three levels of spiked plasma at −20°C for 1 week and 4°C for 24 h.

[5] = Particle size and morphology by transmission electron microscopy; format: physicochemical
From the text: We evaluated the successful preparation of CA-g-CS by UV absorption and IR detection of CS, CA, and CA-g-CS and compared the solubility of CS as well as CA-g-CS in water. The morphology of CA-g-CS/QR and QR was characterized by transmission electron microscopy. CA-g-CS/QR and QR were dropped on clean copper grids, negatively stained with 2% phosphotungstic acid solution, and the water was evaporated in the air at room temperature. The samples were dried and placed under transmission electron microscopy to observe the morphology.

[6] = rats; cited from earlier work
[7] = no colony growth on solid medium

O=c1c(O)c(-c2ccc(O)c(O)c2)oc2cc(O)cc(O)c12 [QR, Quercetin]
MIC ([1]; 24 h at 37°C, TTC method): 0.013 mol/L | MBC [1, 7]: 0.026 mol/L | MIC ([2]; 24 h at 37°C, TTC method): 0.0585 mol/L | MBC [2, 7]: 0.117 mol/L | AUC(0-inf) ([3]; n = 6): 2840 ng·h/mL | AUC(0-t) ([3]; n = 6): 2760 ng·h/mL | CL/F ([3]; n = 6): 219 ± 44.1 mL/min/kg | Cmax ([3]; n = 6): 278 ± 18.5 ng/mL | Tmax ([3]; n = 6): 2 h | half-life ([3]; n = 6, read-out: T1/2, λz): 6.98 ± 0.704 h | Vd/F ([3]; n = 6, read-out: Vd, λz/F): 132 ± 25.5 L/kg | remaining at 24 h, 10 ng/mL ([4]; prepared plasma sample, 10 ng/mL, read-out: Remaining (%) in prepared plasma sample stored at 4°C for 24h): 92.8 ± 2.94% | remaining at 24 h, 100 ng/mL ([4]; prepared plasma sample, 100 ng/mL, read-out: Remaining (%) in prepared plasma sample stored at 4°C for 24h): 97.2 ± 5.63% | remaining at 24 h, 500 ng/mL ([4]; prepared plasma sample, 500 ng/mL, read-out: Remaining (%) in prepared plasma sample stored at 4°C for 24h): 99.98 ± 0.45% | remaining at 168 h, 10 ng/mL ([4]; spiked plasma, 10 ng/mL, read-out: Remaining (%) in plasma stored at −20°C for 7 days): 96.6 ± 6.62% | remaining at 168 h, 100 ng/mL ([4]; spiked plasma, 100 ng/mL, read-out: Remaining (%) in plasma stored at −20°C for 7 days): 103 ± 8.97% | remaining at 168 h, 500 ng/mL ([4]; spiked plasma, 500 ng/mL, read-out: Remaining (%) in plasma stored at −20°C for 7 days): 93.5 ± 1.78% | particle size [5]: 1.5 ± 0.1 μm | oral bioavailability [6]: < 17%
